This is an account of results in patent US20240016734A1 (Aquestive Therapeutics, Inc., priority 2022, published 2024).

Marks after values point to notes of the source that are not given here.

For data set [1] the following is noted: modified Ussing chambers; cited from earlier work.
For data set [2] the following is noted: in PBS (pH 7.4) at 37°±1° C., n=6; cited from earlier work.
Data set [3] is classed as in vitro ADME, porcine. The note with it: pig, 360 min. An excerpt:
FIG. 41B depicts a comparison of individual adrenergic receptor interacters in terms of amount permeated as a function of time.
FIG. 41C depicts ex vivo permeation as a function of time of different adrenergic receptor interacters in DESF compositions. The ex-vivo permeation in this example involved the exposure of porcine buccal tissue to formulations varying with regard to permeation enhancer(s) used and API concentration. […] Amount permeated increases with eugenol content, where eugenol contents in both test formulations were lower than that used in the control.
Ex-vivo permeation involved the exposure of porcine buccal tissue to formulations varying with regard to permeation enhancer(s) used and API concentration. […] Amount permeated increased with eugenol content, where eugenol contents in both test formulations were lower than that used in the control.

A short description of data set [4]: Pilot PK study of auto-injectors vs 0.3 mg manual IM injection. The class given is in vivo. The note with it: human, plasma, intramuscular, 27 healthy subjects, crossover.
Data set [5] is described as follows: AQST-109 single and repeat dose PK vs EpiPen and 0.3 mg IM (AQ109201). The note with it: for AUC(0-t) / Cmax / Tmax: human, plasma, intramuscular, 0.3 mg. The class given is in vivo, human. The method, then: Referring to FIG. 35, the study was a controlled study in healthy volunteers. […] However, the need and use of a second dose can be quite rare. […] Within this context, a post hoc analysis was performed.

Data set [6] is described as follows: AQST-109 12 mg residence time / food / swallowed film PK study. The class given is in vivo, human. To be noted: for Cmax / AUC(0-t): AQST-109 12 mg (N = 48 doses), Epinephrine IM Injection 0.3 mg (N = 48 doses). The method, then: In this example, three different residence times were tested. The 4 minute residence time is shown in circle data points. The 2 minute residence time is shown in downward pointing triangle data points. The 0 minute residence time is shown in upward pointing triangle data points.
The purpose of this investigation was to continue to study the administration of the film under a variety of conditions and further characterize its pharmacokinetics, pharmacodynamics, and safety. The final two arms of the study were designed to assess the impact of (1) administering the film sublingually two minutes after consuming food—in this case, a peanut butter sandwich, and (2) swallowing the film whole immediately with 240 mL of water. The control arm used for reference was the optimized sublingual film administration with a four-minute residence time.

The nature of data set [7]: AQ109201 safety, adverse events. The class given is in vivo, human.
The next data set is described as follows: in vivo. The method, then: The study compared various dose routes: sublingual (SL), per oral tablet (PO), subcutaneous (SC) and intravenous (IV). […] An Oral Irritation assessment was performed (SL film group): Predose (0) and 24 hr postdose by Draize scoring.
Data set [8] is described as follows: Ex vivo permeation of epinephrine, Franz diffusion cell. The method, then:
A franz diffusion cell is obtained and prepared.
If testing films, one can perform the following next steps: (1) weigh films, punch to match diffusion area (or smaller), reweigh, record pre- and post-punching weight; (2) wet a donor area with approximately 100 μL of phosphate buffer; (3) place film on a donor surface, top with 400 μL of phosphate buffer, and start timers.
The tissue is dermatomed to precise thickness. • 4. […] The media is selected to ensure sink conditions. • 5.

The conditions of data set [9]: concentration ranges explored.
Text: In this example, acidic conditions were explored for the ability to promote stability.
[10] abbreviates: single dose: 12 mg, 0.3 mg, EpiPen.

In the case of `Cn1c(=O)c2c(ncn2C)n(C)c1=O` [caffeine], the “permeability through buccal epithelium compared with full thickness buccal tissue” value in [1] is on record as 1.8 fold.

For `CC(C)NCC(O)COc1cccc2ccccc12` (stereo not shown) [PP], the “C0 of saturated solution” value in data set [2] is 588.005 ± 5.852 ng/mL.

As for `OCc1ccccc1` [benzyl alcohol], the amount permeated in data set [3] lay within 50 to 100 µg.

Take `CNC[C@H](O)c1ccc(O)c(O)c1` [Epinephrine IM Injection, epinephrine]: the Cmax in data set [4] (read-out: geometric mean Cmax) was found to be 0.344 ng/mL; in data set [5] (Repeat Dose (10 min), geometric mean, read-out: Cmax), 0.755 ng/mL; in data set [5] (after one dose, read-out: maximum concentration, CMax) it was 0.489 ng/mL; in data set [5] (after two doses, second dose ten minutes after the first, read-out: maximum concentration, CMax) it was 0.911 ng/mL; in data set [6] (human, plasma, im, 0.3 mg, read-out: Arithmetic Mean Cmax), 0.397 ng/mL; in data set [6] (human, plasma, im, 0.3 mg, read-out: Geometric Cmax), 0.351 ng/mL. The Tmax is 50 min in [4] (read-out: median Tmax (converted)); 50 min in [5] (Repeat Dose (10 min), read-out: Tmax (median) (converted)); 30 to 70 min in [5] (Repeat Dose (10 min), read-out: Tmax Range); 45 min in data set [5] (single dose administration, read-out: Tmax (median) (converted)); 50 min in data set [6] (human, plasma, im, 0.3 mg, read-out: median time to maximum concentration (Tmax) (converted)). In addition, the AUC(0-t) amounted to 0.067 ng·h/mL in data set [5] (AUC 0-30 min, Repeat Dose (10 min)); 0.181 ng·h/mL in data set [5] (Repeat Dose (10 min), read-out: AUC0-45 min); 1.3 ng·h/mL in data set [5] (Repeat Dose (10 min), read-out: AUC 0-t); 0.023 ng·h/mL in [6] (human, plasma, im, 0.3 mg, AUC 0-20 minutes); 0.0475 ng·h/mL in data set [6] (human, plasma, im, 0.3 mg, AUC 0-30 minutes). Besides, in data set [5] (repeat dosing), the “time after second dose administration until impact on PK profile” value is given as “over 20 min”. The “median time to reach 100 pg/mL” value in [6] (AQST-109 at 4-minute residence, 0.3 mg IM injection) was 10 min. Also, the Cardiac disorders is 1 (4.3) n (%) in data set [7] (repeat dose: 24 mg (N = 23), 0.6 mg (N = 23)) and 1 (4.3) n (%) in data set [7] (single dose: 12 mg (N = 23), 0.3 mg (N = 23), EpiPen (N = 22)). In addition, the Palpitations was 1 (4.3) n (%) in data set [7] (repeat dose: 24 mg, 0.6 mg) and 1 (4.3) n (%) in [7] (setting [10]). The Ventricular extrasystoles is on record as 1 (4.3) n (%) in data set [7] (repeat dose: 24 mg, 0.6 mg) and 0 n (%) in data set [7] (setting [10]).

Take `CNC[C@H](O)c1ccc(OC(=O)C(C)(C)C)c(OC(=O)C(C)(C)C)c1` (racemic) [Dipi Solution, dipivefrin]: in “in vivo”, the “% Boiavailability (DIPI AUC0-t)” value is listed as 128.5% and the “% Boiavailability (EPI AUC0-t)” value was determined as 131.0%. Besides, in “in vivo” (iv), the “time until cleared from the system” value was at most 2 h. For the same compound, in the data set “in vivo” (iv, 1 mg), the AUC(0-t) is 0.887 ng·h/mL, the Cmax was determined as 11.7 ng/mL and the “EPI Cmax (mean)” value came to 7.62 ng/mL. Moreover, in “in vivo” (po, 6 mg), the “DIPI AUC0-t” value was 0, the “EPI Cmax (mean)” value was 0.28 ng/mL, the “EPI Tmax” value is 120 min and the Tmax worked out at 0 min. In the data set “in vivo” (sc, 22 mg), the AUC(0-t) was 25.1 ng·h/mL, the Cmax came to 15 ng/mL, the “EPI Cmax (mean)” value came out at 12.5 ng/mL and the “EPI Tmax” value is 180 min. In addition, the Tmax in the data set “in vivo” (sc, 22 mg) is 5 min.

With `C=CCc1ccc(O)c(OC)c1` [100% Eugenol], in [8], the “Permeability Coefficient” value was 384 nm/s.

Compound `Cc1ccc(C(C)(C)O)cc1` [cherry propanol, 2-(4-methylphenyl)propan-2-ol] returned an amount permeated in data set [3] of 0 to 50 µg.

In the case of `C=CCc1ccc(O)c(OC)c1` [3% Eugenol], in data set [8], the “Permeability Coefficient” value amounted to 74.3 nm/s.

As to `CNC[C@H](O)c1ccc(O)c(O)c1` [Epinephrine Base], the “Average Steady State Flux” value in [8] (conc 4.4 mg/mL, solubilized in situ) came out at 0.512 ug/cm^2*min.

For `C=CCc1ccc(O)c(OC)c1` [eugenol], the amount permeated in [3] is 50 to 275 µg.

For `C=CCc1ccc(O)c(OC)c1` [0.3% Eugenol], the “Permeability Coefficient” value in data set [8] was determined as 41.4 nm/s.

For `CNC[C@H](O)c1ccc(O)c(O)c1` [Epinephrine Bitartrate], the “permeation as a function of solution pH” value in data set [8] is on record as “slightly favorable”. Besides, the Theoretical enhancement in data set [8] (8 mg/mL) was 2; in data set [8] (16 mg/mL), 4; in data set [8] (100 mg/mL) it was 25. Besides, the average amount permeated came to 0 in data set [8] (30 min, 16 mg/mL); 2.5 in data set [8] (45 min, 16 mg/mL); 5.5 in data set [8] (60 min, 16 mg/mL); 31.33 in data set [8] (120 min, 16 mg/mL); 72.67 in data set [8] (180 min, 8 mg/0.500 mL); 112.2 in data set [8] (240 min, 16 mg/mL). The average amount permeated was found to be 160.2 in data set [8] (300 min, 16 mg/mL) and 213.3 in data set [8] (360 min, 16 mg/mL). The average flux turned out to be 0 μg/cm^2 * min in data set [8] (30 min, 16 mg/mL); 0.2604 μg/cm^2 * min in [8] (45 min, 16 mg/mL); 0.3125 μg/cm^2 * min in [8] (60 min, 16 mg/mL); 0.6727 μg/cm^2 * min in data set [8] (120 min, 16 mg/mL); 1.076 μg/cm^2 * min in data set [8] (180 min, 8 mg/mL); 1.029 μg/cm^2 * min in data set [8] (240 min, 16 mg/mL). For the same compound, the average flux in [8] (300 min, 16 mg/mL) is given as 1.25 μg/cm^2 * min; in data set [8] (360 min, 16 mg/mL), 1.385 μg/cm^2 * min. The “Average Steady State Flux” value is 0.167 ug/cm^2*min in data set [8] (360 min, 4 mg/mL); 0.466 ug/cm^2*min in data set [8] (360 min, 8 mg/mL); 2.942 ug/cm^2*min in [8] (360 min, 100 mg/mL). In [8] (360 min, 16 mg/mL), the “steady state flux average” value was 1.317. The “inherent pH in solution” value in data set [9] is 4.5-5.
